# How the values were obtained:
# [1] = per os; cited from earlier work
# [2] = Solubility of Nystatin in aqueous γ-CD solutions (spectrophotometric); format: physicochemical; conditions: for Nystatinkonzentration: 37 °C, 10 min schütteln
# Protocol: Ähnlich wie im Falle des Flavofungins wurde auch für Nystatin die Löslichkeit in γ-CD-Lösungen unterschiedlicher Konzentration ermittelt. Die verwendeten wäßrigen γ-CD-Lösungen hatten Konzentrationen von 0, 1, 2,5, 4, 5, 6, 7, 8, 9, 10 und 15 %. Pro ml wurden 20 mg Nystatin zu gesetzt. Die Lösungen wurden bei 37 °C 10 Minuten lang geschüttelt, dann wurde ihr Nystatingehalt spektrophotometrisch bestimmt. Ähnlich wie bei Flavofungin wurde gefunden, daß die Löslichkeit des Nystatins in wäßrigen γ-CD-Lösungen ansteigt und in 5 %iger γ-CD-Lösung etwa das 25fache, in 10 %iger γ-CD-Lösung etwa das 40fache der ursprünglichen Wasserlöslichkeit beträgt. Die Meßergebnisse sind in der Tabelle 2 zusammengestellt.
# Die aus dem anfänglich linearen Abschnitt der bei 37 °C aufgenommen Löslichkeitsisotherme berechnete scheinbare Stabilitätskonstante des Komplexes beträgt etwa 500.
# Weibliche CFY-Ratten = assay: Mortality after subcutaneous administration in rats; format: in vivo; conditions: subcutan, 150 mg/kg, observation one week
# From the text: • a) Die Resorption von Nystatin aus per os verabreichtem Nystatin-γ-CD-Komplex Die Resorption des Wirkstoffes wurde an Mäusen, an einem durch intravenöse Applikation einer Suspension von Candida albicans hervorgerufenen Sepsismodell untersucht. Die Sepsis verursachte innerhalb von 2-3 Tagen 100 %ige Mortalität. Den Versuchstieren wurde per os gemäß Beispiel 3 hergestellte, 8 % Nystatin enthaltende Komplex verabreicht. In einem Parallelversuch wurde Nystatin intravenös appliziert. Für beide Gruppen wurde die auf die unbehandelte Kontrolle bezogene Verlängerung der Überlebensdauer ermittelt. [formula] Wenn man diejenigen in Form des Komplexes per os verabreichten Nystatindosen mit denjenigen i.v. applizierten Nystatindosen vergleicht, die eine etwa gleiche Verlängerung der Überlebensdauer bewirkten (Tabelle 9, letzte Spalte),so läßt sich errechnen, daß aus dem Komplex durchschnittlich 6,2 % des Wirkstoffes in die Blutbahn gelangten. Bei den höchsten Dosen (i.v. 1,56 mg/kg, p.o. 25 mg/kg) ist das Zurückfallen der Überlebensdauer bereits auf die schwache Toxizität des Nystatins zurückzuführen. • b) Die Resorption von Nystatin aus subcutan appliziertem Nystatin-γ-CD-Komplex Weibliche CFY-Ratten eines durchschnittlichen Gewichtes von 180 g wurden mit Nystatin, mit Nystatin-γ-CD-Komplex (Wirkstoffgehalt9 8 %) beziehungsweise mit γ-CD behandelt. […]
# [3] = test system: aus menschlichem Blut hergestellten Suspensionen roter Blutkörperchen
# From the text: Dyn. 6, 408-414 [1983]) untersucht. Die Ergebnisse werden in Form der zu 50 %iger Hämolyse gehörenden Konzentrationen (EH₅₀) angegeben. […] Auch die hämolytische Wirkung einer der im Komplex gebundenen γ-CD-Menge entsprechenden Menge γ-Cyclodextrin wurde untersucht.
structure (smiles),measurement,setting,value
C[C@@H]1[C@H](O)[C@@H](C)/C=C/C=C/CC/C=C/C=C/C=C/C=C/C(O[C@H]2O[C@H](C)[C@@H](O)[C@H](N)[C@@H]2O)CC2O[C@](O)(CC(O)C(O)CCC(O)CC(O)CC(O)CC(=O)O[C@H]1C)CC(O)C2C(=O)O (some centres unmarked) [Nystatin],Blutspiegel,[1],überhaupt nicht meßbar
same,Löslichkeit relative to ursprüngliche Wasserlöslichkeit,[2]; 5 %ige γ-CD-Lösung,~25 fache
same,Löslichkeit relative to ursprüngliche Wasserlöslichkeit,[2]; 10 %ige γ-CD-Lösung,~40 fache
same,Nystatinkonzentration,[2]; γ-CD-Konzentration 0 %,"0,20 mg/ml"
same,Nystatinkonzentration,[2]; γ-CD-Konzentration 1 %,"1,30 mg/ml"
same,Nystatinkonzentration,"[2]; γ-CD-Konzentration 2,5 %","2,36 mg/ml"
same,Nystatinkonzentration,[2]; γ-CD-Konzentration 4 %,"3,95 mg/ml"
same,Nystatinkonzentration,[2]; γ-CD-Konzentration 5 %,"4,70 mg/ml"
same,Nystatinkonzentration,[2]; γ-CD-Konzentration 6 %,"5,50 mg/ml"
same,Nystatinkonzentration,[2]; γ-CD-Konzentration 7 %,"6,30 mg/ml"
same,Nystatinkonzentration,[2]; γ-CD-Konzentration 8 %,"7,20 mg/ml"
same,Nystatinkonzentration,[2]; γ-CD-Konzentration 9 %,"8,10 mg/ml"
same,Nystatinkonzentration,[2]; γ-CD-Konzentration 10 %,"8,95 mg/ml"
same,Nystatinkonzentration,[2]; γ-CD-Konzentration 15 %,"8,20 mg/ml"
same,Mortalität (animals that died),Weibliche CFY-Ratten,kein einziges
same,Hämolyse,[3]; 70 µg/ml Nystatin,70%
same,EH₅₀ (concentration for 50 % haemolysis),[3]; complexes berechnet als Wirkstoff,57 µg/mL
